Test system: HBV
Assay: HBV inhibition assay: anti-HBV activity in vitro in HepG2.2.15 cells (extracellular HBV DNA by qPCR)
Type: cell-based
Conditions: Hepatitis B virus, 120 h, five days after compound treatment, extracellular HBV DNA in culture supernatant by qPCR, concentration at which HBV replication is inhibited by 50%
Procedure, shortened: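 HepG2.2.15 cells (stably carrying HBV genome) treated with half-log serially diluted compounds at 0.5% DMSO final for five days. Extracellular HBV DNA in supernatant quantified by qPCR after Proteinase K digestion; EC50 is concentration giving 50% inhibition of replication.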

SMILES | EC50 [nM]
Cc1nc(C2CC(=O)N(c3cnn4c3CN(C(=O)Nc3cc(F)c(F)c(F)c3)[C@@H](C)C4)C2)co1 (stereo partly drawn) [Example 350, (6S)-6-methyl-3-[4-(2-methyloxazol-4-yl)-2-oxo-pyrrolidin-1-yl]-N-(3,4,5-trifluorophenyl)-6,7-dihydro-4H-pyrazolo[1,5-a]pyrazine-5-carboxamide] | 15
C[C@H]1Cn2ncc(N3CC(c4cccnc4)CC3=O)c2CN1C(=O)Nc1cc(F)c(F)c(F)c1 (stereo partly drawn) [Example 351, (6S)-6-methyl-3-[2-oxo-4-(3-pyridyl)pyrrolidin-1-yl]-N-(3,4,5-trifluorophenyl)-6,7-dihydro-4H-pyrazolo[1,5-a]pyrazine-5-carboxamide] | 12
C[C@H]1Cn2ncc(N3CC(c4cocn4)CC3=O)c2CN1C(=O)Nc1cc(F)c(F)c(F)c1 (stereo partly drawn) [Example 352, (6S)-6-methyl-3-(4-oxazol-4-yl-2-oxo-pyrrolidin-1-yl)-N-(3,4,5-trifluorophenyl)-6,7-dihydro-4H-pyrazolo[1,5-a]pyrazine-5-carboxamide] | 14
C[C@H]1Cn2ncc(N3CC(c4ccccn4)CC3=O)c2CN1C(=O)Nc1cc(F)c(F)c(F)c1 (stereo partly drawn) [Example 353, (6S)-6-methyl-3-[2-oxo-4-(2-pyridyl)pyrrolidin-1-yl]-N-(3,4,5-trifluorophenyl)-6,7-dihydro-4H-pyrazolo[1,5-a]pyrazine-5-carboxamide] | 5
C[C@H]1Cn2ncc(N3CC(c4ccncc4)CC3=O)c2CN1C(=O)Nc1cc(F)c(F)c(F)c1 (stereo partly drawn) [Example 354, (6S)-6-methyl-3-[2-oxo-4-(4-pyridyl)pyrrolidin-1-yl]-N-(3,4,5-trifluorophenyl)-6,7-dihydro-4H-pyrazolo[1,5-a]pyrazine-5-carboxamide] | 13
C[C@H]1Cn2ncc(N3CCCC3=O)c2CN1C(=O)Nc1ccc(F)c(Cl)c1 [Example 355, (6S)—N-(3-chloro-4-fluoro-phenyl)-6-methyl-3-(2-oxopyrrolidin-1-yl)-6,7-dihydro-4H-pyrazolo[1,5-a]pyrazine-5-carboxamide] | 36
C[C@H]1Cn2ncc(N3CCCC3=O)c2CN1C(=O)Nc1cc(F)c(F)c(F)c1 [Example 356, (6S)-6-methyl-3-(2-oxopyrrolidin-1-yl)-N-(3,4,5-trifluorophenyl)-6,7-dihydro-4H-pyrazolo[1,5-a]pyrazine-5-carboxamide] | 50
CC1CCC(=O)N(c2cnn3c2CN(C(=O)Nc2cc(F)c(F)c(F)c2)[C@@H](C)C3)C1 (stereo partly drawn) [Example 358, (6S)-6-methyl-3-(5-methyl-2-oxo-1-piperidyl)-N-(3,4,5-trifluorophenyl)-6,7-dihydro-4H-pyrazolo[1,5-a]pyrazine-5-carboxamide] | 43
C[C@H]1Cn2ncc(N3CC(C#N)(CO)CC3=O)c2CN1C(=O)Nc1cc(F)c(F)c(F)c1 (stereo partly drawn) [Example 360, (6S)-3-[4-cyano-4-(hydroxymethyl)-2-oxo-pyrrolidin-1-yl]-6-methyl-N-(3,4,5-trifluorophenyl)-6,7-dihydro-4H-pyrazolo[1,5-a]pyrazine-5-carboxamide] | 43
C[C@H]1Cn2ncc(N3CC(C)(C#N)CC3=O)c2CN1C(=O)Nc1cc(F)c(F)c(C(F)F)c1 (stereo partly drawn) [Example 361, (6S)-3-(4-cyano-4-methyl-2-oxo-pyrrolidin-1-yl)-N-[3-(difluoromethyl)-4,5-difluoro-phenyl]-6-methyl-6,7-dihydro-4H-pyrazolo[1,5-a]pyrazine-5-carboxamide] | 11
C[C@H]1Cn2ncc(N3CC(C)(CO)CC3=O)c2CN1C(=O)Nc1cc(F)c(F)c(F)c1 (stereo partly drawn) [Example 362, (6S)-3-[4-(hydroxymethyl)-4-methyl-2-oxo-pyrrolidin-1-yl]-6-methyl-N-(3,4,5-trifluorophenyl)-6,7-dihydro-4H-pyrazolo[1,5-a]pyrazine-5-carboxamide] | 32
C[C@H]1Cn2ncc(N3CC(N(C)c4ncccn4)CC3=O)c2CN1C(=O)Nc1cc(F)c(F)c(F)c1 (stereo partly drawn) [Example 363, (6S)-6-methyl-3-[4-[methyl(pyrimidin-2-yl)amino]-2-oxo-pyrrolidin-1-yl]-N-(3,4,5-trifluorophenyl)-6,7-dihydro-4H-pyrazolo[1,5-a]pyrazine-5-carboxamide] | 9
